GI50 data for five compounds are collected here from ChEMBL document CHEMBL1147516, “Synthesis and evaluation of lasonolide A analogues” (2004).

What all share (type): functional
What all share (conditions): Homo sapiens

The subject of one test is HCT-116. Nature of the test: Growth inhibition against HCT116 cell line was evaluated.
Another test has as its system NCI-H46. The test can be described thus: Growth inhibition against NCI-H460 cell line was evaluated.
In the next test the test system is A549. Nature of the test: Growth inhibition against A549 cell line was evaluated.

Some results are limits rather than exact numbers.

By GI50 is commonly meant the concentration that inhibits growth by half. `CCCCCCCCCCCCOC(=O)[C@H](O)C/C=C\C[C@@H]1O[C@@H]2/C=C/C/C=C/C(C)=C\[C@H]3O[C@@H](C/C=C/C=C/C(=O)O[C@H](C2)[C@@]1(C)CO)C[C@H](O)[C@H]3C`: the GI50 was 0.19 µM with HCT-116, 0.17 µM with NCI-H46 and 0.2 µM with A549.

For `C=C(CCC(C)C)COC(=O)[C@H](O)C/C=C\C[C@@H]1O[C@@H]2/C=C/C/C=C/C(C)=C\[C@H]3O[C@@H](C/C=C/C=C/C(=O)O[C@H](C2)[C@@]1(C)CCO)C[C@H](O)[C@H]3C`, the GI50 was found to be 1.8 µM in the test on HCT-116, 1 µM in the test on NCI-H46 and 0.8 µM in the test on A549.

As for `C=C(CCC(C)C)COC(=O)[C@H](O)C/C=C\C[C@@H]1O[C@@H]2/C=C/C/C=C/C(C)=C\[C@@H]3C[C@@H](O)C[C@H](C/C=C/C=C/C(=O)O[C@H](C2)[C@@]1(C)CO)O3`, the 50% growth inhibitory concentration (GI50) in the test with HCT-116 worked out at 0.045 µM; with NCI-H46, 0.065 µM; in the test with A549 it was 0.1 µM.

For `C=C(CCC(C)C)COC(=O)[C@H](O)C/C=C\C[C@@H]1O[C@@H]2/C=C/C/C=C/C(C)=C\[C@H]3O[C@@H](C/C=C/C=C/C(=O)O[C@H](C2)[C@@]1(C)CO)C[C@H](O)[C@H]3C` [LASONOLIDE A], the GI50 in the test with HCT-116 was 0.003 µM; in the test on NCI-H46 it was less than 0.003 µM; in the test with A549 it was 0.015 µM.

Consider `CCOC(=O)[C@H](O)C/C=C\C[C@@H]1O[C@@H]2/C=C/C/C=C/C(C)=C\[C@H]3O[C@@H](C/C=C/C=C/C(=O)O[C@H](C2)[C@@]1(C)CO)C[C@H](O)[C@H]3C` [LASONOLIDE E], for which the figures for the concentration for 50% growth inhibition (GI50) in the test on HCT-116, in the test with NCI-H46 and in the test with A549 were 0.1 µM, 0.015 µM and 0.007 µM, respectively.
